“Also recorded” adds a separate entry of the source.
Key:
A. fumigatus [1] = assay: Planktonic MIC, CLSI guidelines; format: cell-based; details: Aspergillus fumigatus
Description: (§1) Minimum inhibitory concentrations were determined using CLSI guidelines (Beattie & Krysan, 2021; Wiederhold, 2021). All yeasts were cultured overnight in 3 mL YPD at 30° C., then washed twice in sterile PBS. Two-fold serial dilutions of each compound were prepared in RMPI+MOPS pH 7 (Gibco RPMI 1640 with L-glutamine [11875-093] and 0.165M 352 MOPS), then 1×10^3 cells were added per well. Plates were incubated at 37° C. for 24 hours (C. albicans and S. cerevisiae) or 72 hours (C. neoformans). For A. fumigatus and F. oxysporum wells were inoculated with 1.25×10^4 conidia. Plates were incubated at 37° C. for 48 hours for A. fumigatus and 72 hours for F. oxysporum. All MICs are defined as the well with complete growth inhibition as determined by visual inspection with the exception of MICs of fluconazole against C. albicans where the MIC is defined as at least 50% reduction in growth compared to the control.

C. albicans [2] = assay: Planktonic MIC, CLSI guidelines; format: cell-based, Candida albicans
Description: as §1

human cell lines = details: Kim et al., 2021; cited from earlier work
A. fumigatus [3] = assay: Checkerboard assay with clinical antifungals (FICI); format: cell-based, Aspergillus fumigatus; details: for MIC: Aspergillus fumigatus, read-out: MICA (MIC of each drug alone); for MIC / MICC (MIC in combination): checkerboard B x Voriconazole
Description: (§2) To determine if compounds interacted with clinically used antifungal drugs, checkerboard assays were performed and fractional inhibitory concentration indices were determined. […] The FICI for compound B and fluconazole is 8.25 due to the 8-fold increase in fluconazole concentration in the combination; however, the concentration of compound B at FIC is reduced by 4-fold relative to compound B as a single agent (Table 3).

red blood cells = assay: Red blood cell lysis assay; format: cell-based, sheep; details: 2 h, normalized to max lysis by triton-x
Description: Hemolysis assays were performed with defibrinated sheep's blood (Lampire, Cat #7239001). Blood was washed three times with PBS then resuspended to about 50% hematocrit in PBS. A two-fold dilution series of the compounds in 200 μL PBS with equal DMSO concentration across the series, then red blood cells were added with a final concentration of 2% hematocrit. Cells were incubated at RT for 2 hours in a v-bottom microtiter plate, then plates were spun down and supernatant was transferred to a flat bottom microtiter plate for absorbance measurement at 570 nm. Compounds were tested in technical triplicate in at least two independent assays performed on different days.

[4] = test system: medically important yeasts and molds; assay: Antifungal activity, general statements; format: cell-based
Description: as §1

C. auris [5] = details: cited from earlier work
C. glabrata = assay: Planktonic MIC, CLSI guidelines; format: cell-based; details: Nakaseomyces glabratus; strain KK2001
Description: as §1

C. neoformans = assay: Planktonic MIC, CLSI guidelines; format: cell-based; details: Cryptococcus neoformans
Description: as §1

F. oxysporum = assay: Planktonic MIC, CLSI guidelines; format: cell-based; details: Fusarium oxysporum; strain DUMC Fo
Description: as §1

C. auris [6] = assay: Planktonic MIC, CLSI guidelines; format: cell-based, Candida auris; details: Candidozyma auris
Description: as §1

P. aeruginosa = assay: Antibacterial MIC; format: cell-based, Pseudomonas aeruginosa
S. aureus = assay: Antibacterial MIC; format: cell-based; details: Staphylococcus aureus; strain Newman
C. albicans [7] = assay: Checkerboard assay with clinical antifungals (FICI); format: cell-based, Candida albicans; details: for MIC: Candida albicans, read-out: MICA (MIC of each drug alone)
Description: as §2

[8] = test system: A. fumigatus CEA10 hyphae; assay: Metabolic activity of hyphae/biofilms (resazurin); format: cell-based; details: Aspergillus fumigatus, CEA10HYPHAE, 24 h pre-incubation, 24 h exposure, read-out: hyphal metabolic activity IC50
From the text: (§3) CLSI testing of antifungal activity of molds is based on inoculation with conidia and, therefore, measures inhibition of germination (Widerhold, 2021). For example, voriconazole is the gold standard for treatment of pulmonary infection and inhibits germination. The most important A. fumigatus infection that requires non-systemic therapy is fungal keratitis (Hoffman et al., 2022). At the time of clinical presentation, A. fumigatus is exclusively in the hyphal form. […] A. fumigatus CEA10 was incubated for 24 hours prior to exposure to a dilution series of compound B or C for an additional 24 hours. The metabolic activity of the cultures was determined using resazurin as previously described (Mao et al., 2020). […] To further characterize the mode of action of the KAPs against A. fumigatus hyphae, CEA10 was treated with compound B for 24 hours and then the cells were stained with propidium iodide, a dye that is excluded from cells with intact membranes (FIG. 2D).

[9] = test system: A. fumigatus CEA10 hyphal cells; assay: Propidium iodide staining and DIC imaging of hyphae; format: cell-based, Aspergillus fumigatus; details: 16 μg/mL, 24 hours
From the text: as §3

HepG2 cells = assay: Mammalian cell culture toxicity assay (LDH release and XTT); format: cell-based, human
Description: HepG2 cells (ATCC, #) were maintained and cultured in HepG2 media (DMEM (Gibco, Cat #11965-092) with 5% FBS, 20 mM Glutamine, and Penicillin/Streptomycin) at 37° C. with 5% CO2. Cells were seeded in 96-well plates at a density of 1.25×10^4 cells/well and incubated overnight at 37° C. with 5% CO2, then media was removed and replaced with media containing a two-fold dilution series of compounds with equal DMSO concentrations across all wells including no compound controls. Cells were incubated for an additional 24 hours. Supernatant was removed and used to quantify lactate dehydrogenase release using the CyQuant LDH assay kit (Invitrogen, Cat #C20300) following the manufacturer's directions. LDH signal was normalized to a max lysis control. The remaining cells were then used to quantify cellular metabolism by XTT. Briefly, cells were washed, then 0.9 mg/mL XTT (Sigma, CAT #X4626)+320 μg/mL PMS ([…] methosulfate; Sigma, Cat #P9625) in HepG2 media was added to each well. Plates were incubated at 37° C., with 5% CO2 for 2 hours, then absorbance was measured at 490 nm.

C. albicans [10] = assay: Planktonic MIC, CLSI guidelines; format: cell-based, Candida albicans; details: data not shown
C. albicans [11] = details: Yamashita et al., 2019; cited from earlier work
[12] = A. fumigatus CEA10, Table 4, read-out: A. fumigatus MIC
[13] = Candida albicans, C. albicans SC5314, Table 4, read-out: C. albicans MIC
[14] = checkerboard B x Amphotericin B

Cc1cc[n+](CC(=O)c2ccc(-c3ccc(Oc4ccccc4)cc3)cc2)cc1.[Cl-] [KAP-3]
MIC (A. fumigatus [1]; [12]): 8 µg/mL
MIC (C. albicans [2]; [13]): 4 µg/mL

CCCCCCCCCCCCCCCC[n+]1ccccc1 [cetylpyridinium chloride]
LD50, toxicity against human cell lines (human cell lines): 6 µg/mL

Cc1ccc(-c2ccc(C(=O)C[n+]3ccc(N)cc3)cc2)c2ccccc12.[Cl-] [KAP-2]
MIC (A. fumigatus [1]; [12]): 16 µg/mL
MIC (C. albicans [2]; [13]): 8 µg/mL

C[C@@H](c1ncncc1F)[C@](O)(Cn1cncn1)c1ccc(F)cc1F [Voriconazole, reference compound]
MIC (A. fumigatus [3]): 0.25 µg/mL
MICC (MIC in combination) (A. fumigatus [3]): 0.125 µg/mL

COc1ccc(F)c(-c2ccc(C(=O)C[n+]3ccc(N)cc3)cc2)c1.[Br-] [Compound C]
red blood cell lysis LD50 (red blood cells): > 1000 µg/mL
antifungal activity [4]: inactive; also recorded: no antifungal activity

[H]/N=C(\N/C(=N/[H])NCCCCCCNC(=N)NC(=N)Nc1ccc(Cl)cc1)Nc1ccc(Cl)cc1 [2% chlorhexidine, chlorhexidine]
reduction of fungal burden of colonized porcine skin (C. auris [5]; 72 hour experiment, three daily applications, Johnson et al., 2021): about 0.5 log10

Nc1cc[n+](CC(=O)c2ccc3c(c2)OC(c2cccc(C(F)(F)F)c2)(c2cccc(C(F)(F)F)c2)O3)cc1.[Cl-] [KAP-1]
MIC (A. fumigatus [1]; [12]): 16 µg/mL
MIC (C. albicans [2]; [13]): 1 µg/mL

Cc1cc[n+](CC(=O)c2ccc(-c3ccc(Oc4ccccc4)cc3)cc2)cc1.[Br-] [Compound B]
MIC (A. fumigatus [1]; strain AF293, read-out: MIC): 1 µg/mL
MIC (A. fumigatus [1]; strain CEA10, read-out: MIC): 8 µg/mL
MIC (A. fumigatus [1]; strain Cas^R, read-out: MIC): 16 µg/mL
MIC (A. fumigatus [1]; strain SPF98, read-out: MIC): 16 µg/mL
MIC (C. glabrata): 1 µg/mL
MIC (C. neoformans; strain DUMC 118.00): 2 µg/mL
MIC (C. neoformans; strain DUMC 122.01): 4 µg/mL
MIC (C. neoformans; strain H99): 2 µg/mL
MIC (F. oxysporum): 16 µg/mL
MIC (C. albicans [2]; Candida albicans, strain SC5314, read-out: MIC): 8 µg/mL
MIC (C. albicans [2]; Candida albicans, strain TWO #15, fluconazole-resistant, read-out: MIC): 4 µg/mL
MIC (C. albicans [2]; strain TWO #17, fluconazole-resistant): 4 µg/mL
MIC (C. auris [6]; strain 0381, drug susceptible): 16 µg/mL
MIC (C. auris [6]; strain 0390, multi-drug resistant): 4 µg/mL
activity compared to cetylpyridinium chloride (P. aeruginosa; P. aeruginosa): more active
MIC (P. aeruginosa; Pseudomonas aeruginosa, strain PAO1): 32 µg/mL
MIC (S. aureus): 16 µg/mL
FICI (C. albicans [7]; B with Amphotericin B): 0.75
FICI (C. albicans [7]; B with Fluconazole): 8.25
MIC (C. albicans [7]; [14]): 4 µg/mL
MIC (C. albicans [7]; checkerboard B x Fluconazole): 16 µg/mL
MICC (MIC in combination) (C. albicans [7]; [14]): 1 µg/mL
MICC (MIC in combination) (C. albicans [7]; checkerboard B x Fluconazole): 4 µg/mL
reduction of concentration at FIC relative to single agent (C. albicans [7]; combination with fluconazole): 4 fold
interaction with clinical antifungal (C. albicans [7]; with amphotericin B): indifferent (2 < FICI < 4 = indifferent)
interaction with clinical antifungal (C. albicans [7]; with caspofungin): indifferent (2 < FICI < 4 = indifferent)
interaction with clinical antifungal (C. albicans [7]; with fluconazole): antagonistic
MIC (A. fumigatus [3]): 16 µg/mL
FICI (A. fumigatus [3]; B with Voriconazole): 0.625
MICC (MIC in combination) (A. fumigatus [3]): 2 µg/mL
interaction with clinical antifungal (A. fumigatus [3]; with voriconazole): indifferent (2 < FICI < 4 = indifferent)
IC50 [8]: 3.9 µg/mL
DIC images of hyphae [9]: loss of refractivity and fragmentation of hyphae
propidium iodide staining [9]: uniform uptake of dye
red blood cell lysis LD50 (red blood cells): 78.6 µg/mL
LD50, cell lysis assay (HepG2 cells; HepG2, LDH release, 24 h): 9 µg/mL
LD50, metabolic activity assay (HepG2 cells; HepG2, XTT, 24 h): 20 µg/mL
LD50, toxicity against human cell lines (HepG2 cells; readout not given): 20 µg/mL
change in MIC with glycerol instead of glucose as carbon source (C. albicans [10]): not observed

Cc1cc[n+](CC(=O)c2ccc(-c3ccc(Oc4ccc(F)cc4)cc3)cc2)cc1.[Cl-] [KAP-4]
MIC (A. fumigatus [1]; [12]): 16 µg/mL
MIC (C. albicans [2]; [13]): 4 µg/mL

N=C(N)c1ccc(OCCCC2CCN(CCCOc3ccc(C(=N)N)cc3)CC2)cc1 [Compound T-2307]
MIC on 2% glycerol compared to 2% dextrose (C. albicans [11]): decreases dramatically

Nc1cc[n+](CC(=O)c2ccc(Oc3ccccc3)cc2)cc1.[Cl-] [KAP-5]
MIC (A. fumigatus [1]; [12]): > 64 µg/mL

N=C(NCCCCCCNC(=N)NC(=N)Nc1ccc(Cl)cc1)NC(=N)Nc1ccc(Cl)cc1.O=C(O)[C@H](O)[C@@H](O)[C@H](O)[C@H](O)CO.O=C(O)[C@H](O)[C@@H](O)[C@H](O)[C@H](O)CO [chlorhexidine gluconate]
activity against C. auris colonization of skin (C. auris [5]; comparison stated in Example 2): minimally active

OC(Cn1cncn1)(Cn1cncn1)c1ccc(F)cc1F [Fluconazole, reference compound]
MIC (C. albicans [7]; checkerboard B x Fluconazole): 0.125 µg/mL
MICC (MIC in combination) (C. albicans [7]; checkerboard B x Fluconazole): 1 µg/mL
increase in fluconazole concentration in the combination (C. albicans [7]; combination with compound B): 8 fold

C[C@@H]1[C@H](O)[C@@H](C)/C=C/C=C/C=C/C=C/C=C/C=C/C=C/[C@H](O[C@@H]2O[C@H](C)[C@@H](O)[C@H](N)[C@@H]2O)C[C@@H]2O[C@](O)(C[C@@H](O)C[C@@H](O)[C@H](O)CC[C@@H](O)C[C@@H](O)CC(=O)O[C@H]1C)C[C@H](O)[C@H]2C(=O)O [Amphotericin B, reference compound]
MICA (MIC of each drug alone) (C. albicans [7]; [14]): 0.5 µg/mL
MICC (MIC in combination) (C. albicans [7]; [14]): 0.25 µg/mL
